In the assay the target is T1, human orexin type 2 receptor (Homo sapiens, UniProt O43614).
T1 construct: expressed in transfected cells
T1 sequence (O43614 1-444): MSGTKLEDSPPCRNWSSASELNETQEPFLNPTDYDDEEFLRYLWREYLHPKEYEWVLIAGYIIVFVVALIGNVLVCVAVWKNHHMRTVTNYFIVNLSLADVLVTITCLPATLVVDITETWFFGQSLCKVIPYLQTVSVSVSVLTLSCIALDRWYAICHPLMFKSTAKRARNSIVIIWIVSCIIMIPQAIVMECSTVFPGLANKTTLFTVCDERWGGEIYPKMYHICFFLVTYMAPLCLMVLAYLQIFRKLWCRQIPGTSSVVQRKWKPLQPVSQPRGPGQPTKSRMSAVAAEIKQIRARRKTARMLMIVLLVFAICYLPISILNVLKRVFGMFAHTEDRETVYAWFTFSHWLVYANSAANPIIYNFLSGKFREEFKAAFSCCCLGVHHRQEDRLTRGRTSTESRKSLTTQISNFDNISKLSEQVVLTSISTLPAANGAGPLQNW
The assay is described as follows: Measurement of orexin type 2 receptor agonist activity (calcium indicator fluorescence, CHO cells forcibly expressing human OX2 receptor). Conditions: compound at 3 μM; 0% = DMSO, 100% = orexin A (human) 10 nM. In kind it is cell-based. The gist of the method:
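Agonist response normalised between vehicle (0%) and orexin A at 10 nM final (100%), from kinetic Fluo-4 calcium signals recorded for about 2 min after compound addition. Cells: stable human OX2R CHO clone, dye-loaded 30 min at 37 °C plus 30 min at room temperature.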
With `CCS(=O)(=O)N[C@H]1[C@@H](F)CN(C(=O)C(C)(C)O)[C@H]1Cc1cccc(-c2cccc(F)c2)c1F` [Example 207, N-[(2S,3R,4S)-2-[(2,3′-difluoro[1,1′-biphenyl]-3-yl)methyl]-4-fluoro-1-(2-hydroxy-2-methylpropanoyl)pyrrolidin-3-yl]ethanesulfonamide], the “OX2R agonist activity (3 μM, %)” value is reported as 88%.

Consider `CCS(=O)(=O)N[C@H]1[C@@H](F)CN(C(=O)C2CCO2)[C@H]1Cc1cccc(-c2cccc(C)c2)c1F` (stereo partly drawn) [Example 498, N-[(2S,3R,4S)-4-fluoro-2-[(2-fluoro-3′-methyl[1,1′-biphenyl]-3-yl)methyl]-1-(oxetane-2-carbonyl)pyrrolidin-3-yl]ethanesulfonamide], for which the “OX2R agonist activity (3 μM, %)” value was 99%.

Regarding `CC(C)(O)C(=O)N1C[C@H](F)[C@H](NS(C)(=O)=O)[C@@H]1Cc1cccc(-c2cccc(Cl)c2)c1F` [Example 388, N-[(2S,3R,4S)-2-[(3′-chloro-2-fluoro[1,1′-biphenyl]-3-yl)methyl]-4-fluoro-1-(2-hydroxy-2-methylpropanoyl)pyrrolidin-3-yl]methanesulfonamide], the “OX2R agonist activity (3 μM, %)” value came to 89%.

Regarding `CCS(=O)(=O)N[C@@H]1[C@H](Cc2cccc(-c3ccccc3)c2F)N(C(=O)C2CCO2)CC1(F)F` (stereo partly drawn) [Example 45, N-[(2S,3R)-4,4-difluoro-2-[(2-fluoro[1,1′-biphenyl]-3-yl)methyl]-1-(oxetane-2-carbonyl)pyrrolidin-3-yl]ethanesulfonamide], the “OX2R agonist activity (3 μM, %)” value was found to be 98%.

`CCS(=O)(=O)N[C@@H]1[C@H](Cc2cccc(-c3cccc(F)c3)c2)N(C(=O)C2CCO2)CC1(F)F` (stereo partly drawn) [Example 52, N-[(2S,3R)-4,4-difluoro-2-[(3′-fluoro[1,1′-biphenyl]-3-yl)methyl]-1-(oxetane-2-carbonyl)pyrrolidin-3-yl]ethanesulfonamide]: the “OX2R agonist activity (3 μM, %)” value amounted to 100%.

Turning to `CN(C)C(=O)N1C[C@H](F)[C@H](NS(=O)(=O)C2CC2)[C@@H]1Cc1cccc(-c2cccc(F)c2)c1F` [Example 387, (2S,3R,4S)-3-[(cyclopropanesulfonyl)amino]-2-[(2,3′-difluoro[1,1′-biphenyl]-3-yl)methyl]-4-fluoro-N,N-dimethylpyrrolidine-1-carboxamide], the “OX2R agonist activity (3 μM, %)” value was 85%.

As to `CCS(=O)(=O)N[C@H]1[C@@H](F)CN(C(=O)C2CC2)[C@H]1Cc1cccc(-c2ccccc2)c1F` [Example 239, N-{(2S,3R,4S)-1-(cyclopropanecarbonyl)-4-fluoro-2-[(2-fluoro[1,1′-biphenyl]-3-yl)methyl]pyrrolidin-3-yl}ethanesulfonamide], the “OX2R agonist activity (3 μM, %)” value is 102%.

With `CCS(=O)(=O)N[C@@H]1[C@H](Cc2cccc(-c3ccc(F)c(F)c3F)c2F)N(C(=O)C2CCO2)CC1(F)F` (stereo partly drawn) [Example 471, N-{(2S,3R)-4,4-difluoro-1-(oxetane-2-carbonyl)-2-[(2,2′,3′,4′-tetrafluoro[1,1′-biphenyl]-3-yl)methyl]pyrrolidin-3-yl}ethanesulfonamide], the “OX2R agonist activity (3 μM, %)” value is listed as 94%.

As to `CN(C)S(=O)(=O)N[C@@H]1[C@H](Cc2cccc(-c3ccccc3)c2F)N(C(=O)N2CCC2)CC1(F)F` [Example 139, N′-{(2S,3R)-1-(azetidine-1-carbonyl)-4,4-difluoro-2-[(2-fluoro[1,1′-biphenyl]-3-yl)methyl]pyrrolidin-3-yl}-N,N-dimethylsulfuric diamine], the “OX2R agonist activity (3 μM, %)” value stood at 93%.

For `CN(C)C(=O)N1CC(F)(F)[C@H](NS(=O)(=O)N(C)C)[C@@H]1Cc1cccc(-c2ccccc2)c1F` [Example 138, (2S,3R)-3-[(dimethylsulfamoyl)amino]-4,4-difluoro-2-[(2-fluoro[1,1′-biphenyl]-3-yl)methyl]-N,N-dimethylpyrrolidine-1-carboxamide], the “OX2R agonist activity (3 μM, %)” value is listed as 97%.

Consider `CS(=O)(=O)N[C@@H]1[C@H](Cc2cccc(-c3cc(F)ccc3F)c2F)N(C(=O)[C@H]2CCO2)CC1(F)F` [Example 122, N-{(2S,3R)-4,4-difluoro-1-((2R)-oxetane-2-carbonyl)-2-[(2,2′,5′-trifluoro[1,1′-biphenyl-]-3-yl)methyl]pyrrolidin-3-yl}methanesulfonamide], for which the “OX2R agonist activity (3 μM, %)” value was 89%.

In the case of `CCS(=O)(=O)N[C@H]1[C@@H](F)CN(C(=O)C23CC(C2)C3)[C@H]1Cc1cccc(-c2cccc(F)c2F)c1F` [Example 366, N-{(2S,3R,4S)-1-(bicyclo[1.1.1]pentane-1-carbonyl)-4-fluoro-2-[(2,2′,3′-trifluoro[1,1′-biphenyl]-3-yl)methyl]pyrrolidin-3-yl}ethanesulfonamdie], the “OX2R agonist activity (3 μM, %)” value is on record as 96%.

On to `O=C(C1CCO1)N1C[C@H](F)[C@H](NS(=O)(=O)C2CC2)[C@@H]1Cc1cccc(-c2cccc(Cl)c2)c1F` (stereo partly drawn) [Example 485, N-[(2S,3R,4S)-2-[(3′-chloro-2-fluoro[1,1′-biphenyl]-3-yl)methyl]-4-fluoro-1-(oxetane-2-carbonyl)pyrrolidin-3-yl]cyclopropanesulfonamide], for which the “OX2R agonist activity (3 μM, %)” value turned out to be 93%.

As for `CS(=O)(=O)N[C@@H]1[C@H](Cc2cccc(-c3cccc(F)c3)c2)N(C(=O)[C@H]2CCCO2)CC1(F)F` [Example 26, N-{(2S,3R)-4,4-difluoro-2-[(3′-fluoro[1,1′-biphenyl]-3-yl)methyl]-1-[(2R)-oxolane-2-carbonyl]pyrrolidin-3-yl}methanesulfonamide], the “OX2R agonist activity (3 μM, %)” value stood at 100%.

`Cc1cccc(-c2cccc(C[C@H]3[C@@H](NS(=O)(=O)N(C)C)C(F)(F)CN3C(=O)C3CCO3)c2F)c1` (stereo partly drawn) [Example 434, N′-[(2S,3R)-4,4-difluoro-2-[(2-fluoro-3′-methyl[1,1′-biphenyl]-3-yl)methyl]-1-(oxetane-2-carbonyl)pyrrolidin-3-yl]-N,N-dimethylsulfuric diamide]: the “OX2R agonist activity (3 μM, %)” value worked out at 101%.

With `CN(C)S(=O)(=O)N[C@H]1[C@@H](F)CN(C(=O)N2CCC2)[C@H]1Cc1cccc(-c2cc(F)cc(F)c2)c1F` [Example 458, N′-{(2S,3R,4S)-1-(azetidine-1-carbonyl)-4-fluoro-2-[(2,3′,5′-trifluoro[1,1′-biphenyl]-3-yl)methyl]pyrrolidin-3-yl}-N,N-dimethylsulfuric diamide], the “OX2R agonist activity (3 μM, %)” value stood at 84%.

Consider `CCS(=O)(=O)N[C@@H]1[C@H](Cc2cccc(-c3cccc(F)c3)c2F)N(C(=O)[C@H]2C[C@@H](F)C2)CC1(F)F` [Example 226, N-[(2S,3R)-2-[(2,3′-difluoro[1,1′-biphenyl]-3-yl)methyl]-4,4-difluoro-1-((1s,3R)-3-fluorocyclobutane-1-carbonyl)pyrrolidin-3-yl]ethanesulfonamide], for which the “OX2R agonist activity (3 μM, %)” value stood at 100%.

With `Cc1cccc(-c2cccc(C[C@H]3[C@@H](NS(=O)(=O)C4CC4)[C@@H](F)CN3C(=O)C3CCO3)c2F)c1` (stereo partly drawn) [Example 484, N-[(2S,3R,4S)-4-fluoro-2-[(2-fluoro-3′-methyl[1,1′-biphenyl]-3-yl)methyl]-1-(oxetane-2-carbonyl)pyrrolidin-3-yl]cyclopropanesulfonamide], the “OX2R agonist activity (3 μM, %)” value is 90%.

Take `O=C(C1CCO1)N1C[C@H](F)[C@H](NS(=O)(=O)C2CC2)[C@@H]1Cc1cccc(-c2cc(F)cc(F)c2)c1F` (stereo partly drawn) [Example 479, N-{(2S,3R,4S)-4-fluoro-1-(oxetane-2-carbonyl)-2-[(2,3′,5′-trifluoro[1,1′-biphenyl]-3-yl)methyl]pyrrolidin-3-yl}cyclopropanesulfonamide]: the “OX2R agonist activity (3 μM, %)” value stood at 93%.

For `CCS(=O)(=O)N[C@@H]1[C@H](Cc2cccc(-c3ccccc3)c2F)N(C(=O)C2(O)CCC2)CC1(F)F` [Example 23, N-[(2S,3R)-4,4-difluoro-2-[(2-fluoro[1,1′-biphenyl]-3-yl)methyl]-1-(1-hydroxycyclobutane-1-carbonyl)pyrrolidin-3-yl]ethanesulfonamide], the “OX2R agonist activity (3 μM, %)” value is recorded as 100%.

In the case of `CCS(=O)(=O)N[C@@H]1[C@H](Cc2cccc(-c3ccc(F)c(C)c3)c2F)N(C(=O)C2CCO2)CC1(F)F` (stereo partly drawn) [Example 476, N-[(2S,3R)-2-[(2,4′-difluoro-3′-methyl[1,1′-biphenyl]-3-yl)methyl]-4,4-difluoro-1-(oxetane-2-carbonyl)pyrrolidin-3-yl]ethanesulfonamide], the “OX2R agonist activity (3 μM, %)” value came out at 100%.

`CCS(=O)(=O)N[C@H]1[C@@H](F)CN(C(=O)C(C)(C)O)[C@H]1Cc1cccc(-c2cc(F)cc(Cl)c2)c1F` [Example 345, N-[(2S,3R,4S)-2-[(3′-chloro-2,5′-difluoro[1,1′-biphenyl]-3-yl)methyl]-4-fluoro-1-(2-hydroxy-2-methylpropanoyl)pyrrolidin-3-yl]ethanesulfonamide]: the “OX2R agonist activity (3 μM, %)” value was found to be 92%.

With `CCS(=O)(=O)N[C@@H]1[C@H](Cc2cccc(-c3cccc(C)c3)c2F)N(C(=O)C2(O)CCC2)CC1(F)F` [Example 275, N-[(2S,3R)-4,4-difluoro-2-[(2-fluoro-3′-methyl[1,1′-biphenyl]-3-yl)methyl]-1-(1-hydroxycyclobutane-1-carbonyl)pyrrolidin-3-yl]ethanesulfonamide], the “OX2R agonist activity (3 μM, %)” value worked out at 85%.

In the case of `CCS(=O)(=O)N[C@@H]1[C@H](Cc2cccc(-c3cccc(C(F)F)c3)c2F)N(C(=O)C(C)C)CC1(F)F` [Example 507, N-[(2S,3R)-2-{[3′-(difluoromethyl)-2-fluoro[1,1′-biphenyl]-3-yl]methyl}-4,4-difluoro-1-(2-methylpropanoyl)pyrrolidin-3-yl]ethanesulfonamide], the “OX2R agonist activity (3 μM, %)” value is on record as 97%.

The record behind these values is US20230040770A1, “HETEROCYCLIC COMPOUND AND USE THEREOF” (TAKEDA PHARMACEUTICAL COMPANY LIMITED, priority 2019, published 2023).
